In patent US8440708B2, “Triazole-substituted arylamides as P2X3 and P2X2/3 antagonists” (Roche Palo Alto LLC, priority 2007, dated 2013):

Assays:
human P2X2/3 receptor = target: T1, human P2X2/3 receptor (Homo sapiens, UniProt P56373+Q9UBL9); assay: P2X3/P2X2/3 FLIPR (Fluorometric Imaging Plate Reader) Assay, P2X2/3; type: cell-based; settings: CHO-K1 cells transfected with human P2X2/3; agonist α,β-meATP 5 μM; Table 1; read-out: P2X2/3 pKi (converted)
T1 construct: expressed in transfected cells; host or cells: CHO-K1
T1 sequence (Q9UBL9 1-471): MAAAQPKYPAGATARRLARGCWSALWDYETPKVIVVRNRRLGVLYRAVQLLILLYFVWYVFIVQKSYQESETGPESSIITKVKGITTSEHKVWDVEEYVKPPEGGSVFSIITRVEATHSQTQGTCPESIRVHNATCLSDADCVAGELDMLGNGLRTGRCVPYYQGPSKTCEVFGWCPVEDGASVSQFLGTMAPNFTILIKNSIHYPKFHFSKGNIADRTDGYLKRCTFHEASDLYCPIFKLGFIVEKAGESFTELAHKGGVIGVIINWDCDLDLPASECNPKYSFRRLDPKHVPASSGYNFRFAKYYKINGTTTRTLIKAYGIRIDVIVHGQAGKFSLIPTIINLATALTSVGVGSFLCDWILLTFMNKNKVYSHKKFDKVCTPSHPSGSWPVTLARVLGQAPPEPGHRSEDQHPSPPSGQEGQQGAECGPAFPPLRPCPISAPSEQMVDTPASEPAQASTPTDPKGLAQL
T1 sequence (P56373 1-397): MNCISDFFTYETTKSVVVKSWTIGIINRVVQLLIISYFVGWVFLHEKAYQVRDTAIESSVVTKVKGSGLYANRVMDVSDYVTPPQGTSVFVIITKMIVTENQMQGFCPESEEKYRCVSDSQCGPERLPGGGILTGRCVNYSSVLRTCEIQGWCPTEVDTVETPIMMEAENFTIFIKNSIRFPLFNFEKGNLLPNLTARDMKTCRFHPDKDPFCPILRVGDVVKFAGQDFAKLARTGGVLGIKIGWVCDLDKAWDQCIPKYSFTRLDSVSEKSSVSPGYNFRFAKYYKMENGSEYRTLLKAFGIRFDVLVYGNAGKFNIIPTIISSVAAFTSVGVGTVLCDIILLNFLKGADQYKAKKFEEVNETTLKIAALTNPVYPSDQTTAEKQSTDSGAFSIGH
In short: (§1)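 CHO-K1 cells expressing rat P2X3 or human P2X2/3 were loaded with Fluo-3 AM (2 μM, 1 h, 37 °C) and preincubated with compound for 20 min at room temperature. Calcium influx was evoked by α,β-meATP (1 μM for P2X3, 5 μM for P2X2/3) and peak fluorescence was fitted by nonlinear regression to inhibition curves.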

rat P2X3 receptor = target: T2, rat P2X3 receptor (Rattus norvegicus, UniProt P49654); assay: P2X3/P2X2/3 FLIPR (Fluorometric Imaging Plate Reader) Assay, P2X3; type: cell-based; settings: CHO-K1 cells transfected with rat P2X3; agonist α,β-meATP 1 μM; Table 1; read-out: P2X3 pKi (converted)
T2 construct: expressed in transfected cells; host or cells: CHO-K1
T2 sequence (P49654 1-397): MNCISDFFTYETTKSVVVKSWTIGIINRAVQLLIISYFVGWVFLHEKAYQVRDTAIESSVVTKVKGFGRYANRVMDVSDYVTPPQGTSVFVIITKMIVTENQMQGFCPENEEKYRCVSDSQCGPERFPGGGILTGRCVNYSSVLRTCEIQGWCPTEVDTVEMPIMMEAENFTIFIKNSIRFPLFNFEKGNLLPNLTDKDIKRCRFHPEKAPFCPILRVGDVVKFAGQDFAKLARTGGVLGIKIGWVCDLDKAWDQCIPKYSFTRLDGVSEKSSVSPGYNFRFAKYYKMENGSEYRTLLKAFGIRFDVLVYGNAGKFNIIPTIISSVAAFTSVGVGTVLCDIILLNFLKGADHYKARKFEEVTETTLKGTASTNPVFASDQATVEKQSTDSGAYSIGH
In short: as §1

Structure (SMILES): Cc1ccc(-c2cc(C(=O)NCc3cnc(C)cn3)cc(-c3ncnn3C(C)C)c2)cc1 [Compound 137, 5-(2-Isopropyl-2H-[1,2,4]triazol-3-yl)-4′-methyl-biphenyl-3-carboxylic acid (5-methyl-pyrazin-2-ylmethyl)-amide]
- Ki (human P2X2/3 receptor): 398 nM
- Ki (rat P2X3 receptor): 11.5 nM

Structure (SMILES): COc1nnc(C(C)C)n1-c1cc(C(=O)NCc2cnc(C)cn2)cc(-c2ccc(C)cc2)c1 [Compound 138, 5-(3-Isopropyl-5-methoxy-[1,2,4]triazol-4-yl)-4′-methyl-biphenyl-3-carboxylic acid (5-methyl-pyrazin-2-ylmethyl)-amide]
- Ki (human P2X2/3 receptor): 4170 nM
- Ki (rat P2X3 receptor): 724 nM

Structure (SMILES): Cc1ccc(-c2cc(C(=O)NC3CC3)cc(-n3ncnc3C(C)N(C)C)c2)nc1 (stereo not shown) [Compound 139, N-Cyclopropyl-3-[5-(1-dimethylamino-ethyl)-[1,2,4]triazol-1-yl]-5-(5-methyl-pyridin-2-yl)-benzamide]
- Ki (human P2X2/3 receptor): 1700 nM
- Ki (rat P2X3 receptor): 27.5 nM

Structure (SMILES): Cc1ccc(-c2cc(C(=O)N[C@@H](C)CO)cc(-n3ncnc3C(C)N(C)C)c2)nc1 (stereo partly drawn) [Compound 140, 3-[5-(1-Dimethylamino-ethyl)-[1,2,4]triazol-1-yl]-N-((S)-2-hydroxy-1-methyl-ethyl)-5-(5-methyl-pyridin-2-yl)-benzamide]
- Ki (human P2X2/3 receptor): 2750 nM
- Ki (rat P2X3 receptor): 20 nM

Structure (SMILES): Cc1ccc(-c2cc(C(=O)NCc3cnc(C)cn3)cc(-n3ncnc3C(C)N(C)C)c2)nc1 (stereo not shown) [Compound 141, 3-[5-(1-Dimethylamino-ethyl)-[1,2,4]triazol-1-yl]-N-(5-methyl-pyrazin-2-ylmethyl)-5-(5-methyl-pyridin-2-yl)-benzamide]
- Ki (human P2X2/3 receptor): 214 nM
- Ki (rat P2X3 receptor): 12.3 nM

Structure (SMILES): Cc1ccc(-c2cc(C(=O)NC(C)c3cnccn3)cc(-n3ncnc3C(C)N(C)C)c2)nc1 (stereo not shown) [Compound 142, 3-[5-(1-Dimethylamino-ethyl)-[1,2,4]triazol-1-yl]-5-(5-methyl-pyridin-2-yl)-N-(1-pyrazin-2-yl-ethyl)-benzamide]
- Ki (human P2X2/3 receptor): 229 nM
- Ki (rat P2X3 receptor): 9.12 nM

Structure (SMILES): Cc1ccc(-c2cc(C(=O)NCc3cnc(C)cn3)cc(-n3ncnc3-c3ccccc3)c2)nc1 [Compound 143, N-(5-Methyl-pyrazin-2-ylmethyl)-3-(5-methyl-pyridin-2-yl)-5-(5-phenyl-[1,2,4]triazol-1-yl)-benzamide]
- Ki (human P2X2/3 receptor): 1120 nM
- Ki (rat P2X3 receptor): 20.9 nM

Structure (SMILES): Cc1ccc(-c2cc(C(=O)N[C@@H](C)CO)cc(-n3ncnc3-c3ccccc3)c2)nc1 [Compound 144, N-((S)-2-Hydroxy-1-methyl-ethyl)-3-(5-methyl-pyridin-2-yl)-5-(5-phenyl-[1,2,4]triazol-1-yl)-benzamide]
- Ki (human P2X2/3 receptor): 8910 nM
- Ki (rat P2X3 receptor): 182 nM

Structure (SMILES): Cc1ccc(-c2cc(C(=O)NCc3cnc(C)cn3)cc(-n3ncnc3CC(F)F)c2)nc1 [Compound 145, 3-[5-(2,2-Difluoro-ethyl)-[1,2,4]triazol-1-yl]-N-(5-methyl-pyrazin-2-ylmethyl)-5-(5-methyl-pyridin-2-yl)-benzamide]
- Ki (human P2X2/3 receptor): 107 nM
- Ki (rat P2X3 receptor): 3.31 nM

Structure (SMILES): COCCc1ncnn1-c1cc(C(=O)NCc2cnc(C)cn2)cc(-c2ccc(C)cn2)c1 [Compound 147, 3-[5-(2-Methoxy-ethyl)-[1,2,4]triazol-1-yl]-N-(5-methyl-pyrazin-2-ylmethyl)-5-(5-methyl-pyridin-2-yl)-benzamide]
- Ki (human P2X2/3 receptor): 2450 nM
- Ki (rat P2X3 receptor): 4.57 nM

Structure (SMILES): COCCc1ncnn1-c1cc(C(=O)N[C@@H](C)CO)cc(-c2ccc(C)cn2)c1 [Compound 148, N-((S)-2-Hydroxy-1-methyl-ethyl)-3-[5-(2-methoxy-ethyl)-1-[1,2,4]triazol-1-yl]-5-(5-methyl-pyridin-2-yl)-benzamide]
- Ki (human P2X2/3 receptor): 10000 nM
- Ki (rat P2X3 receptor): 60.3 nM

Structure (SMILES): CCOCCc1ncnn1-c1cc(C(=O)NCc2cnc(C)cn2)cc(-c2ccc(C)cn2)c1 [Compound 149, 3-[5-(2-Ethoxy-ethyl)-[1,2,4]triazol-1-yl]-N-(5-methyl-pyrazin-2-ylmethyl)-5-(5-methyl-pyridin-2-yl)-benzamide]
- Ki (human P2X2/3 receptor): 7240 nM
- Ki (rat P2X3 receptor): 20 nM

Structure (SMILES): CCOCCc1ncnn1-c1cc(C(=O)N[C@@H](C)CO)cc(-c2ccc(C)cn2)c1 [Compound 150, 3-[5-(2-Ethoxy-ethyl)-[1,2,4]triazol-1-yl]-N-((S)-2-hydroxy-1-methyl-ethyl)-5-(5-methyl-pyridin-2-yl)-benzamide]
- Ki (human P2X2/3 receptor): 10000 nM
- Ki (rat P2X3 receptor): 158 nM

Structure (SMILES): Cc1ccc(-c2cc(C(=O)NCc3cnc(C)cn3)cc(-n3ncnc3C3CNC3)c2)nc1 [Compound 151, 3-(5-Azetidin-3-yl-[1,2,4]triazol-1-yl)-N-(5-methyl-pyrazin-2-ylmethyl)-5-(5-methyl-pyridine-2-yl)-benzamide]
- Ki (human P2X2/3 receptor): 7240 nM
- Ki (rat P2X3 receptor): 676 nM

Structure (SMILES): Cc1ccc(-c2cc(C(=O)NCc3ccc(C)nn3)cc(-n3ncnc3C3CCC3)c2)nc1 [Compound 152, 3-(5-Cyclobutyl-[1,2,4]triazol-1-yl)-N-(6-methyl-pyridazin-3-ylmethyl)-5-(5-methyl-pyridin-2-yl)-benzamide]
- Ki (human P2X2/3 receptor): 23.4 nM
- Ki (rat P2X3 receptor): 5.75 nM

Structure (SMILES): Cc1ccc(-c2cc(C(=O)NCc3ccc(=O)n(C)c3)cc(-n3ncnc3C(C)C)c2)nc1 [Compound 153, 3-(5-Isopropyl-[1,2,4]triazol-1-yl)-N-(1-methyl-6-oxo-1,6-dihydro-pyridin-3-ylmethyl)-5-(5-methyl-pyridin-2-yl)-benzamide]
- Ki (human P2X2/3 receptor): 4370 nM
- Ki (rat P2X3 receptor): 26.9 nM

Structure (SMILES): COCCc1nc(C)nn1-c1cc(C(=O)N[C@@H](C)CO)cc(-c2ccc(C)cn2)c1 [Compound 155, N-((S)-2-Hydroxy-1-methyl-ethyl)-3-[5-(2-methoxy-ethyl)-3-methyl-[1,2,4]triazol-1-yl]-5-(5-methyl-pyridin-2-yl)-benzamide]
- Ki (human P2X2/3 receptor): 10000 nM
- Ki (rat P2X3 receptor): 3310 nM

Structure (SMILES): Cc1ccc(-c2cc(C(=O)NCc3cnc(C)cn3)cc(-n3ncnc3CC(C)(C)O)c2)nc1 [Compound 156, 3-[5-(2-Hydroxy-2-methyl-propyl)-[1,2,4]triazol-1-yl]-N-(5-methyl-pyrazin-2-ylmethyl)-5-(5-methyl-pyridin-2-yl)-benzamide]
- Ki (human P2X2/3 receptor): 10000 nM
- Ki (rat P2X3 receptor): 123 nM

Structure (SMILES): Cc1ccc(-c2cc(C(=O)NCc3cnc(C)cn3)cc(-n3ncnc3C3CN(C)C3)c2)nc1 [Compound 157, 3-[5-(1-Methyl-azetidin-3-yl)-[1,2,4]triazol-1-yl]-N-(5-methyl-pyrazin-2-ylmethyl)-5-(5-methyl-pyridin-2-yl)-benzamide]
- Ki (human P2X2/3 receptor): 10000 nM
- Ki (rat P2X3 receptor): 676 nM

Structure (SMILES): Cc1cnc(CNC(=O)c2cc(-c3ccc(Cl)cn3)cc(-n3ncnc3C(C)N(C)C)c2)cn1 (stereo not shown) [Compound 158, 3-(5-Chloro-pyridin-2-yl)-5-[5-(1-dimethylamino-ethyl)-[1,2,4]triazol-1-yl]-N-(5-methyl-pyrazin-2-ylmethyl)-benzamide]
- Ki (human P2X2/3 receptor): 851 nM
- Ki (rat P2X3 receptor): 37.2 nM

Structure (SMILES): Cc1ccc(-c2cc(C(=O)NCc3ccn(C)c(=O)c3)cc(-n3ncnc3C(C)C)c2)nc1 [Compound 159, 3-(5-Isopropyl-[1,2,4]triazol-1-yl)-N-(1-methyl-2-oxo-1,2-dihydro-pyridin-4-ylmethyl)-5-(5-methyl-pyridin-2-yl)-benzamide]
- Ki (human P2X2/3 receptor): 26.3 nM
- Ki (rat P2X3 receptor): 2.95 nM

Structure (SMILES): Cc1ccc(-c2cc(C(=O)NCc3cnc(C)cn3)cc(-n3ncnc3C(F)(F)F)c2F)nc1 [Compound 164, 4-Fluoro-N-(5-methyl-pyrazin-2-ylmethyl)-3-(5-methyl-pyridin-2-yl)-5-(5-trifluoromethyl-[1,2,4]triazol-1-yl)-benzamide]
- Ki (human P2X2/3 receptor): 302 nM
- Ki (rat P2X3 receptor): 11.5 nM

Structure (SMILES): Cc1ccc(-c2cc(-n3ncnc3C(F)(F)F)cc(C(=O)N[C@@H](C)CO)c2F)nc1 [Compound 167, 2-Fluoro-N-((S)-2-hydroxy-1-methyl-ethyl)-3-(5-methyl-pyridin-2-yl)-5-(5-trifluoromethyl-[1,2,4]triazol-1-yl)-benzamide]
- Ki (human P2X2/3 receptor): 12 nM
- Ki (rat P2X3 receptor): 2.51 nM
